Assays:
human D2 receptor = human D2 receptor (Homo sapiens (Human), UniProt P14416); assay: Test 1: binding activity for human D2 receptor ([3H]Spiperone, CHO cell membrane fraction); settings: human D2 receptor, [3H]Spiperone
Experimental: (§1) Test 1: Evaluation of Binding Activity for Human 5-HT1A Receptor, Human 5-HT2A Receptor, and Human D2 Receptor
(§2) Binding affinity of the present compound for human 5-HT1A receptor, human 5-HT2A receptor, and human D2 receptor was measured by the following procedures.
(§3) Each mixture was incubated at room temperature for 60 minutes. Then, the mixture was added quickly on a glassfiber filter plate (Multiscreen FB, Millipore, Inc.) coated with 0.3% aqueous polyethylenimine, and vacuum-filtered. Radioactivity remaining on the filter was measured with a liquid scintillation counter (PerkinElmer, Inc.). Binding inhibition rate was calculated from the following formula.
Ki of each compound was calculated from the following formula. Binding inhibition constant (Ki)=IC50/(1+S/Kd) wherein S is concentration of ligand; Kd is a binding dissociation constant of ligand to membrane, which is calculated from a saturated binding experiment conducted with the same cell membrane. A small Ki value means strong binding ability to a receptor.

[1] = Test 4: metabolic stability test in human hepatic microsome; format: in vitro ADME; settings: 0.1 mg/mL microsome, 0.1 μmol/L compound, 37° C., 30 minutes
Experimental: Test 4: Metabolic Stability Test in Human Hepatic Microsome
The stability of the present compound in human hepatic microsome metabolism was evaluated as mentioned below. Human hepatic microsome was obtained from Xenontech. Human hepatic microsome, NADPH, and each test compound were mixed in 25 mmol/L phosphate buffer solution (pH 7.4) to reach the following concentrations as shown below, and the mixture was incubated at 37° C. for 30 minutes. • Human hepatic microsome: 0.1 mg/mL • NAPDH: 3.2 mmol/L • Test compound: 0.1 μmol/L
The residual ratio of the test compound in each sample after 30 minutes was measured by LC-MS, and the metabolic stability in human hepatic microsome was calculated from the following formula. Metabolic stability in human hepatic microsome (mL/min/mg protein)=−LN (residual ratio)/30/0.1

human 5-HT1A receptor [2] = target: T1, human 5-HT1A receptor (Homo sapiens (Human), UniProt P08908); assay: Test 1: binding activity for human 5-HT1A receptor ([3H]8-OH-DPAT, CHO cell membrane fraction)
Experimental: as §1, §2, §3
IC50 value was calculated by Hill analysis (Physiology, 1910, 40, 190-200). Ki of each compound was calculated from the following formula. Binding inhibition constant (Ki)=IC50/(1+S/Kd) wherein S is concentration of ligand; Kd is a binding dissociation constant of ligand to membrane, which is calculated from a saturated binding experiment conducted with the same cell membrane. A small Ki value means strong binding ability to a receptor.

human 5-HT1A receptor [3] = target: T1, human 5-HT1A receptor; assay: Test 2: agonist activity for human 5-HT1A receptor ([35S]GTPγS binding); format: biochemical; settings: for EC50: [35S]GTPγS binding, concentration at which half the activity of Emax was obtained; for Emax at 10 µM: agonist activity in the presence of 10 μM of compound, relative to 100 μmol/L 5-HT
Experimental: Test 2: Evaluation of Agonist Activity for Human 5-HT1A Receptor
CHO cell membrane fraction in which human 5-HT1A receptor was expressed as used in Test 1 was purchased. To a buffer containing guanosine diphosphate were added a test compound dissolved in DMSO, each receptor membrane sample diluted with buffer, and [^35S] Guanosine 5′-O-[gamma-thio]triphosphate (GTPγS). The mixture was incubated at room temperature for 60 minutes. Then, the mixture was added quickly on a glassfiber filter plate (Multiscreen FB, Millipore, Inc.), and vacuum-filtered. Radioactivity remaining on the […] was measured with a liquid scintillation counter. Agonist activity was calculated from the following formula.

hERG channel = hERG channel (Homo sapiens (Human), UniProt Q12809); assay: Test 6-1: inhibitory activity for hERG channel (auto patch clamp, Qpatch); format: cell-based; settings: whole cell auto patch clamp, hERG-CHO cells; read-out: hERG inhibition IC50
Experimental: Test 6-1: Evaluation of Inhibitory Activity for hERG Channel
Inhibitory activity of the present compound for hERG channel was measured by whole cell patch clamp method with an auto patch clamp system using CHO cells in which hERG channel involved in human rapidly activating delayed rectifier potassium current (IKr) was forcibly expressed.
hERG-CHO cells purchased from ChanTest Cop. were cultured in a CO2 incubator at 37° C., and dissociated from a flask with trypsin shortly before the measurement of hERG current, to prepare a cell suspension.
Extracellular fluid: 2 mmol/L CaCl2, 1 mmol/L MgCl2, 10 mmol/L HEPES, 4 mmol/L KCl, 145 mmol/L NaCl, 10 mmol/L Glucose
Intracellular fluid: 5.4 mmol/L CaCl2, 1.8 mmol/L MgCl2, 10 mmol/L HEPES, 31 mmol/L KOH, 10 mmol/L EGTA, 120 mmol/L KCl, 4 mmol/L Na2-ATP
Test compound solution: Test compound was dissolved in DMSO to reach the concentration of 2 mmol/L or 20 mmol/L, in order to prepare a test compound solution. […] (Measurement of Current Value and Data Analysis)
The cell suspension, the extracellular fluid, the intracellular fluid, and the measurement plate were set in the auto patch clamp system, and hERG current was measured by whole cell patch clamp method. […] Each pulse interval was 15 seconds. The data analysis was carried out with Qpatch Assay Software (Biolin Scientific). The test was carried out by applying incrementally 4 concentrations of each test compound, and the average of the maximum peak tail currents which were obtained from the last 3 stimulations in each concentration was determined as the evaluated data. Based on the current inhibition rate for a pre-applied current at each concentration of each test compound, IC50 value was calculated by Hill equation with the software.

human D2 receptor, sequence (P14416 whole entry): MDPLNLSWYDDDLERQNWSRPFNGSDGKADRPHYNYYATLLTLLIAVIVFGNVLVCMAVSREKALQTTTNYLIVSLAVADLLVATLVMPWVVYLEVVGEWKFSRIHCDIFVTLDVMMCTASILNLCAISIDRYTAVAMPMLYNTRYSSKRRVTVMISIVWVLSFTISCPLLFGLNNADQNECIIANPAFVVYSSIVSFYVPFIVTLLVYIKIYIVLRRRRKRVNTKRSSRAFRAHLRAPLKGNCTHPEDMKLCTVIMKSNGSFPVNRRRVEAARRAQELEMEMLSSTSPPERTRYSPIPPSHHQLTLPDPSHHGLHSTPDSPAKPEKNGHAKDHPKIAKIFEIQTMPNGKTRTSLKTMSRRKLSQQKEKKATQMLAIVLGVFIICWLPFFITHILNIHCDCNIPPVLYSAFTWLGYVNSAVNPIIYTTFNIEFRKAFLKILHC
hERG channel, sequence (Q12809 whole entry): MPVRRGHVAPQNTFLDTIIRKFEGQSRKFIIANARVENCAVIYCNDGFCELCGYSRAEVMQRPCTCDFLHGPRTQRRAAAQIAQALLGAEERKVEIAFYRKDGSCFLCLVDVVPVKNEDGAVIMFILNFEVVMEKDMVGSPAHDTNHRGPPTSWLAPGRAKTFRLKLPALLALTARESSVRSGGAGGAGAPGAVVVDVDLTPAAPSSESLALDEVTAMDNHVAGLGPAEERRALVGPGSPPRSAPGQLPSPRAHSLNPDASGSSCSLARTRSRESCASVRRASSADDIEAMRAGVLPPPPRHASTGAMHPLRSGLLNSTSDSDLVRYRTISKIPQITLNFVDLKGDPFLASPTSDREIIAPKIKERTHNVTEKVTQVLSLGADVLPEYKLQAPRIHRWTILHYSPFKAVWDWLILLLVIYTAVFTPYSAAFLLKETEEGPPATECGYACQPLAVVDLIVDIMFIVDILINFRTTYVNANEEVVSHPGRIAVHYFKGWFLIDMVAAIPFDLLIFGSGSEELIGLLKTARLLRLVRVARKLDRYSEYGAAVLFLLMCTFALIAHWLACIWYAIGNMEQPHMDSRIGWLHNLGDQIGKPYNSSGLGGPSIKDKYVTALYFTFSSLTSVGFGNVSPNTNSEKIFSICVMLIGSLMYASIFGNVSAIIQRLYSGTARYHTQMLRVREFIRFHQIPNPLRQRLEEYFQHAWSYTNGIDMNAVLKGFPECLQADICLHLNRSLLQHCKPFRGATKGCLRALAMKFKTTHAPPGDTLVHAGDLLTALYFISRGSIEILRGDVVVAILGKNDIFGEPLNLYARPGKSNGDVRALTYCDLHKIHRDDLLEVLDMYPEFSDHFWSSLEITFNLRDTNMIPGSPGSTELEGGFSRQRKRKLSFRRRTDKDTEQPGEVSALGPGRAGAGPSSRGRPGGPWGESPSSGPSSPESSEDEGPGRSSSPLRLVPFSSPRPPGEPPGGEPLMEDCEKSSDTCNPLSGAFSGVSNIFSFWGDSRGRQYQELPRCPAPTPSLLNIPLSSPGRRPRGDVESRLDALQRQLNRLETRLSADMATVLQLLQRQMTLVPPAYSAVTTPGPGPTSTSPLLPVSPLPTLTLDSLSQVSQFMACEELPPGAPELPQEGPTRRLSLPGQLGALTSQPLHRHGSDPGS
T1 sequence (P08908 whole entry): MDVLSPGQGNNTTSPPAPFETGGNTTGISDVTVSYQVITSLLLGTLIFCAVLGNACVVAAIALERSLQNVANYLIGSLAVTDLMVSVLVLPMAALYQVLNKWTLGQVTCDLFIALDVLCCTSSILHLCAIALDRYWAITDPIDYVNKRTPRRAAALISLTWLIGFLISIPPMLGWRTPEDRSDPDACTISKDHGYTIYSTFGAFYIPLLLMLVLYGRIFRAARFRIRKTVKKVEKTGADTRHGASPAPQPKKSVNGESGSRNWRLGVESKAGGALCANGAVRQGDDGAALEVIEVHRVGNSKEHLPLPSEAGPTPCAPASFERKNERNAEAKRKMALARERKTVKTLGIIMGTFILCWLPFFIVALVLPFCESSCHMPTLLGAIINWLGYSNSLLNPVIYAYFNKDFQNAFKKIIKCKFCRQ

Compound | Ki (human D2 receptor) [nM] | Metabolic stability in human hepatic microsome [1] [mL/min/mg protein] | Ki (human 5-HT1A receptor [2]) [nM] | EC50 (human 5-HT1A receptor [3]) [nM] | Emax at 10 µM (human 5-HT1A receptor [3]) [%] | IC50 (hERG channel) [nM]
O=C1c2cccnc2CCN1CCN1CCC(c2noc3ccccc23)CC1 [Example 128] | 625 | <0.05 | 83.2 | 35.9 | 33 | –
Cn1nc2c(c1Br)C(=O)N(CCN1CCC(c3noc4ccccc34)CC1)CC2 [Example 74] | 210 | – | 3.48 | 4.42 | 51 | –
CCc1nc2c(o1)C(=O)N(CCN1CCN(c3nsc4ccccc34)CC1)CC2 [Example 71] | 305 | – | 2.64 | 7.34 | 67 | –
O=C1c2cccnc2CCN1CCN1CCN(c2noc3ccccc23)CC1 [Example 153, 6-{2-[4-(1,2-Benzoisoxazol-3-yl)piperazin-1-yl]ethyl}-7,8-dihydro-1,6-naphthyridin-5(6H)-one] | – | <0.05 | – | – | 16 | 7100
CC(C)n1ncc2c1CCN(CCN1CCC(c3noc4ccccc34)CC1)C2=O [Example 159] | 373 | <0.05 | 255 | 854 | 18 | –
Cc1ccc2c(n1)C(=O)N(CCN1CCC(c3noc4ccccc34)CC1)CC2 [Example 186] | – | 0.095 | – | – | – | –
Cn1cc2c(n1)C(=O)N(CCN1CCC(c3noc4ccccc34)CC1)CCC2 [Example 48] | 574 | <0.01 | – | – | 37 | 1200
Cn1nc2c(c1Br)C(=O)N(CCN1CCN(c3nsc4ccccc34)CC1)CC2 [Example 73] | 234 | – | 0.97 | – | – | –
O=c1c2cnc(C(F)(F)F)cc2ccn1CCN1CCN(c2nsc3ccccc23)CC1 [Example 172] | 384 | – | 3.33 | 8.2 | 72 | –
O=C1c2ncccc2CCC1CCN1CCN(c2noc3cc(F)ccc23)CC1 (centres unmarked) [Example 143] | 402 | – | 26.5 | 1040 | 31 | 800
CC1(C)CN(CCN2CCC(c3noc4cc(F)ccc34)CC2)C(=O)c2ncccc21 [Example 119] | 105 | – | 3.9 | 63.9 | 35 | –
Cn1ccc2c1CCCN(CCN1CCN(c3noc4ccccc34)CC1)C2=O [Example 109, 5-{2-[4-(1,2-Benzoisoxazol-3-yl)piperazin-1-yl]ethyl}-1-methyl-5,6,7,8-tetrahydropyrrolo[3,2-c]azepin-4 (H)-one] | 601 | <0.01 | – | – | 60 | 11300
Cc1ncc2c(=O)n(CCN3CCC(c4noc5ccccc45)CC3)ccc2n1 [Example 194, 6-{2-[4-(1,2-Benzoisoxazol-3-yl)piperidin-1-yl]ethyl}-2-methylpyrido[4,3-d]pyrimidin-5(6H)-one] | – | <0.05 | – | – | – | 4900
O=C1c2nc(Cl)ccc2CCN1CCN1CCN(c2noc3ccccc23)CC1 [Example 144] | > 10000 | <0.05 | – | – | 53 | –
CC(C)n1ncc2c1CCN(CCN1CCN(c3nsc4ccccc34)CC1)C2=O [Example 158] | 327 | 0.113 | 217 | 921 | 12 | –
Cn1nc(Br)c2c1CCN(CCN1CCC(c3noc4ccccc34)CC1)C2=O [Example 70] | 867 | – | 14.1 | 79.3 | 50 | –
Cc1ccc2c(C3CCN(CCN4CCc5cccnc5C4=O)CC3)noc2c1 [Example 118] | 276 | – | 73.1 | 550 | 5 | –
Cc1ccc2c(n1)C(=O)N(CCN1CCC(c3noc4ccccc34)CC1)CC2 [Example 187] | – | <0.05 | – | – | – | –
O=C1c2[nH]cnc2CCCN1CCN1CCN(c2nsc3ccccc23)CC1 [Example 100, 5-{2-[4-(1,2-Benzoisothiazol-3-yl)piperazin-1-yl]ethyl}-5,6,7,8-tetrahydroimidazo[4,5-c]azepin-4(3H)-one] | 6940 | – | 6.35 | 86.5 | 58 | –
O=c1c2ncccc2ccn1CCN1CCN(c2nsc3ccccc23)CC1 [Example 8] | – | 0.064 | – | – | 50 | 2000
Cc1cc2c(cn1)C(=O)N(CCN1CCN(c3noc4ccccc34)CC1)CC2(C)C [Example 86] | 1210 | – | 9.9 | 16 | 51 | –
O=c1c2cnc(C(F)(F)F)cc2ccn1CCN1CCC(c2noc3ccccc23)CC1 [Example 84] | 954 | – | – | – | 59 | –
O=C1c2cn[nH]c2CCN1CCN1CCN(c2nsc3ccccc23)CC1 [Example 169] | 1920 | – | 44.2 | 62.9 | 44 | –
Cn1cc2c(n1)CCN(CCN1CCC(c3noc4ccccc34)CC1)C2=O [Example 17] | 689 | <0.01 | – | – | 52 | 1000
O=C1c2oc(C3CC3)nc2CCN1CCN1CCC(c2noc3ccccc23)CC1 [Example 68] | 853 | 0.056 | – | – | 38 | < 270
